Here are results for one compound from ChEMBL document CHEMBL2321799 (J Med Chem, 2013).

Structures are written as SMILES.

Test [1] addresses Ephrin type-A receptor 5 (Homo sapiens, UniProt P54756). Nature of the test: Displacement of ephrin-A1-Fc from EphA5 receptor Fc ectodomain (unknown origin) after 1 hr by ELISA.
In test [2] the target is Ephrin type-A receptor 7 (Homo sapiens, UniProt Q15375). Nature of the test: Displacement of ephrin-A1-Fc from EphA7 receptor Fc ectodomain (unknown origin) after 1 hr by ELISA.
Ephrin type-A receptor 7, sequence (Q15375 whole entry, the tested form may be a part): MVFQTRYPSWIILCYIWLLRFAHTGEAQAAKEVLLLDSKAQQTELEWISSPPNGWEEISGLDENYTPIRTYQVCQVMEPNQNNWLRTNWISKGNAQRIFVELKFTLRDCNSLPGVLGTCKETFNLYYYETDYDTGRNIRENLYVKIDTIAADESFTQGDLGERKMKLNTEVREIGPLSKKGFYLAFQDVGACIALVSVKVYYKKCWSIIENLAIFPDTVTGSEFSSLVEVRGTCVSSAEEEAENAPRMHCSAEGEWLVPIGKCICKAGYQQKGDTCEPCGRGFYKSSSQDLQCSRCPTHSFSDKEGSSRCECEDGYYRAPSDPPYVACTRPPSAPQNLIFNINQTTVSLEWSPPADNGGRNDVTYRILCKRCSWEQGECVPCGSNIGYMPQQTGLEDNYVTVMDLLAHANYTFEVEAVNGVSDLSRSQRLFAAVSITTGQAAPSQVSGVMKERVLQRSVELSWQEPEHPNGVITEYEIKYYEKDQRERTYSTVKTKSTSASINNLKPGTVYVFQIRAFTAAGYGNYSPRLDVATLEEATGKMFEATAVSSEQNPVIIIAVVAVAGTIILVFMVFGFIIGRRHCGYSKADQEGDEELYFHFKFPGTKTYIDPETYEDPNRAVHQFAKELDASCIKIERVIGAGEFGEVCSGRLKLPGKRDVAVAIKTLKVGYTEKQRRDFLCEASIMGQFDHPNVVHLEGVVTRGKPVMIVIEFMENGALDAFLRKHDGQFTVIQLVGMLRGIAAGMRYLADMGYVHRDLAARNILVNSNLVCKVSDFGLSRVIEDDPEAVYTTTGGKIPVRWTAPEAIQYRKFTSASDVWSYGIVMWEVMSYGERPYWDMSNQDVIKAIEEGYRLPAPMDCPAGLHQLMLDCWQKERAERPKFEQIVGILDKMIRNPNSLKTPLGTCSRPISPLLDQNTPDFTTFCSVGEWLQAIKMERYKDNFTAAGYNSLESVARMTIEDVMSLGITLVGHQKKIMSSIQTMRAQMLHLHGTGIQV
Test [3] concerns the target T1, Ephrin type-A receptor 8 (Homo sapiens, UniProt P29322).
T1 sequence (P29322 whole entry): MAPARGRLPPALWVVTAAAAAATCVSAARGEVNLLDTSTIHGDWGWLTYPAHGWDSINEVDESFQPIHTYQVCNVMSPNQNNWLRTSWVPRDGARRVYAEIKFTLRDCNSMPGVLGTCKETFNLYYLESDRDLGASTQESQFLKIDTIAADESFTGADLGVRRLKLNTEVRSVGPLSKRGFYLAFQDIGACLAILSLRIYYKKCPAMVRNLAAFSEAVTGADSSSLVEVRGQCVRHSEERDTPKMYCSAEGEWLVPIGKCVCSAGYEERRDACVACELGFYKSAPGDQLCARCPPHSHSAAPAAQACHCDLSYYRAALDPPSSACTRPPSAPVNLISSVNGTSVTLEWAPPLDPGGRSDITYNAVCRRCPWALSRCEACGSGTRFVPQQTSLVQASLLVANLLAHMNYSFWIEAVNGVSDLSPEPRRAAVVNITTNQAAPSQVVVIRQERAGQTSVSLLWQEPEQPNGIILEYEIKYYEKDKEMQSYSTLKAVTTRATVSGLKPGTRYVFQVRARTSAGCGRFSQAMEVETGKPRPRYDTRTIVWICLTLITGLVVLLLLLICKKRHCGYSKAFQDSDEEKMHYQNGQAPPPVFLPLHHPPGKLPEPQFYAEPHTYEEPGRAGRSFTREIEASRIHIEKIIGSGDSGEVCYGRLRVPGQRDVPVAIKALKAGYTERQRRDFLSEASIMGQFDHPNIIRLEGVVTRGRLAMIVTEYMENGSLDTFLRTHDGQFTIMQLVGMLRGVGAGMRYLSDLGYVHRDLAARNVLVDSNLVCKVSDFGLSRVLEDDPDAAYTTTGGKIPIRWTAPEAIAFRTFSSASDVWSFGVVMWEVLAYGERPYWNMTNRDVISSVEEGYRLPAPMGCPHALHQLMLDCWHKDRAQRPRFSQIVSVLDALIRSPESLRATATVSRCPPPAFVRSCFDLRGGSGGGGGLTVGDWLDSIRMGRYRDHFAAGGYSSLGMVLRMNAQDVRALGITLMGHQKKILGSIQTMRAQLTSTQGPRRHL
Description: Displacement of ephrin-A1-Fc from EphA8 receptor Fc ectodomain (unknown origin) after 1 hr by ELISA.

Test [4] has as its target T2, Ephrin type-B receptor 4 (Homo sapiens, UniProt P54760).
T2 sequence (P54760 whole entry): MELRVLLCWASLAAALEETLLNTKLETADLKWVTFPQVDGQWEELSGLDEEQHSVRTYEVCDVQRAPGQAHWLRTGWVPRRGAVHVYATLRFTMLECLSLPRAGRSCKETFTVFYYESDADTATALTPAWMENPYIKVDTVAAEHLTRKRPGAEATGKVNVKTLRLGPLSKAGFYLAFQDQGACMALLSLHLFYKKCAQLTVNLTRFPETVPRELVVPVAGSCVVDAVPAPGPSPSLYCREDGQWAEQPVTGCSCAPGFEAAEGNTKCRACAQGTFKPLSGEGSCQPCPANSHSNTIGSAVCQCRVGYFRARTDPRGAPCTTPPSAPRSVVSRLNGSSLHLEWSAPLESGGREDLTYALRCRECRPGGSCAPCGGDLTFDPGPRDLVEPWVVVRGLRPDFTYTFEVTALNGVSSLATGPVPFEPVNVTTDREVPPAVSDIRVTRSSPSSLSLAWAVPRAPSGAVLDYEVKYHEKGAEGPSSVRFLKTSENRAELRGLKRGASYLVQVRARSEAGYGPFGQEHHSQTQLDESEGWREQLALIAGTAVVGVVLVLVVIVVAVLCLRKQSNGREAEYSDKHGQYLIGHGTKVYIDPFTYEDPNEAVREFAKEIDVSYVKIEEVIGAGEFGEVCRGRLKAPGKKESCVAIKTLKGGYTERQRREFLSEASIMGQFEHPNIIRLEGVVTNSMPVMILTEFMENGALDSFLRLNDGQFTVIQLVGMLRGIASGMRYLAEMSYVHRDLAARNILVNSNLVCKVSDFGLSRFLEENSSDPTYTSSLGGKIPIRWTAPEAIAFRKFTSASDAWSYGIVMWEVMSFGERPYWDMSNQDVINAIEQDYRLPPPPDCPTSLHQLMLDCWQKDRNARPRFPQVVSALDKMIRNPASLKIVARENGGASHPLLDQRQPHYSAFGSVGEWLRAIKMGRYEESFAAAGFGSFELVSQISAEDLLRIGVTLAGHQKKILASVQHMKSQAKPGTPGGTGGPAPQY
Nature of the test: Displacement of ephrin-B1-Fc from EphB4 receptor Fc ectodomain (unknown origin) after 1 hr by ELISA.

Ephrin type-A receptor 5, sequence (P54756 whole entry, the tested form may be a part): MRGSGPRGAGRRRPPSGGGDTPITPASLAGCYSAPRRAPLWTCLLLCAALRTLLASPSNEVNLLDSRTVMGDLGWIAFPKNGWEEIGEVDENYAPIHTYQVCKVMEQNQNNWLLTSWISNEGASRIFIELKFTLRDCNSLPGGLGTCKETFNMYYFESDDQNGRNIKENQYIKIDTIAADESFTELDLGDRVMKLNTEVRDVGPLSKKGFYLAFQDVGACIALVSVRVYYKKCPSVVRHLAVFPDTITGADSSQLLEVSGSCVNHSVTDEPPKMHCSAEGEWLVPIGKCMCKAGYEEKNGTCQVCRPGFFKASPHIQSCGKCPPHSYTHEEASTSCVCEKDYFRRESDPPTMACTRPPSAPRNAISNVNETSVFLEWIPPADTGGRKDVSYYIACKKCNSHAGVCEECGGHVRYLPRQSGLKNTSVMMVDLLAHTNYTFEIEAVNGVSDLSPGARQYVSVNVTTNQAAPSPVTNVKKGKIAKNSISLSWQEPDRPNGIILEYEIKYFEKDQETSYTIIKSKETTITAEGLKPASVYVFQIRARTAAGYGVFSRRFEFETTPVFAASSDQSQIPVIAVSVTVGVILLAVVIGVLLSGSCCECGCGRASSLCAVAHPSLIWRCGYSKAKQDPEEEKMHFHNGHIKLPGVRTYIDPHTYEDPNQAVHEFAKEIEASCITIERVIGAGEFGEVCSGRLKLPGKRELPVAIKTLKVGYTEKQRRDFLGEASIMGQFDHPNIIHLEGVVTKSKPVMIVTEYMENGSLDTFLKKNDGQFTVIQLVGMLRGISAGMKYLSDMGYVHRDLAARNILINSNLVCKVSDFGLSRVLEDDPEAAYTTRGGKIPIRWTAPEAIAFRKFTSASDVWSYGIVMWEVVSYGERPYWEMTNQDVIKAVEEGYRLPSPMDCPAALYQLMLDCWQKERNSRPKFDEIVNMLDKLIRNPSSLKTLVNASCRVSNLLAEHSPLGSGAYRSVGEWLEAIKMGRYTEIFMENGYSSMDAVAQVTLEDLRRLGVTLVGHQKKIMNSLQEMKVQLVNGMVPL

Take `C[C@H](CCC(=O)N[C@@H](Cc1c[nH]c2ccccc12)C(=O)O)[C@H]1CC[C@H]2[C@@H]3CC[C@@H]4C[C@H](O)CC[C@]4(C)[C@H]3CC[C@]12C`: the IC50 in test [1] came out at 2400 nM; in test [2], 2100 nM; in test [3] it was 1500 nM; in test [4], 4400 nM.
